# “Also recorded” adds a separate entry of the source.
# What was measured:
# TCR [1] = assay: Functional CD3 kappa assay: TCR expression on CD4+ PBMCs from healthy donors (antibody staining); type: cell-based, human; conditions: for TCR-expression: CD4+ cells from three healthy donors, FIG. 2A
# Procedure: (§1) Heparinized full blood was layered on room-temperature LSM (density: 1.077 g/ml, Cambrex, Verviers, Belgium). After centrifugation at 400 g at 20° C. for 30 minutes, the interphase cells were isolated. The cells were washed twice with 50 ml PBS containing 2 mM EDTA and centrifuged at 300 g for 10 minutes at 20° C. The cell-pellet was resuspended in RPMI supplemented with 10% autologous serum, Pen/Strep, Gentamycin, Pyruvate, Hepes-buffer and L-Glutamine (Cambrex).
# (§2) CD3 kappa or the control peptide was solubilized in RPMI with 1% human serum albumin (HSA, Calbiochem, Schwalbach, Germany) and 100 μM β-mercaptoethanol (β-ME, Invitrogene) at 10 mg/ml. PBMCs were incubated at 10^6 cells/ml with either peptide in the same medium and stained after on wash step with PBS with various antibodies (BD).
# We synthesized the resulting 42 amino acids polypeptide without the signal sequence resulting in the CD3 kappa peptide having the amino acid sequence according to SEQ ID NO:4. All following experiments were performed with freshly isolated PBMCs from healthy donors in the presence of the 42-mer CD3-kappa or of a control peptide (consisting of the same amino acid composition and length but with a random sequence). […] The control peptide had no effect on TCR expression. Concentrations up to 1 mg/ml CD3-kappa induced a maximal response after 24 h resulting in a six fold upregulation of the TCR.
# CD4 = assay: Functional CD3 kappa assay: CD4 expression on PBMCs from healthy donors; type: cell-based, human; conditions: over 6 d, FIG. 2B
# Procedure: as §1, §2
# The TCR-expression level was stabilized after treatment with CD3-kappa in a majority of the CD4 cells, while untreated cells quickly converted to a low TCR expression state. Only at day 6 did the CD3-kappa treated cells show a decline in TCR expression.
# TCR [2] = assay: TCR expression in PBMCs from patients recovering from T-cell toxic chemotherapy (fludarabine); type: cell-based, human
# Procedure: as §2
# CD3 zeta is synthesized at about 10% of the rate as the other CD3-complex proteins being the limiting component for a correct assembly of the CD3/TCR complex. A maximal upregulation of CD3 zeta can therefore result in a 10-fold upregulation of the TCR. The higher capability of CD3 kappa to upregulate the surface TCR expression might be explained with a reduced need of some of the CD3-complex components.
# PBMCs [3] = assay: Functional CD3 kappa assay: cell surface markers and cytokine/chemokine receptors on PBMCs; type: cell-based, human; conditions: after six days; for expression of CD25 / expression of CD116: FIGS. 4a/4b
# Procedure: as §1, §2
# PBMCs [4] = assay: Protein microarrays (human cytokine micro arrays 6.1 and 7.1) of secreted factors in culture supernatant; type: cell-based; conditions: for amount of EGF in the supernatant / amount of Eotaxin-2 in the supernatant / amount of GRO in the supernatant / amount of I-309 in the supernatant / amount of IFNγ in the supernatant / amount of IL-1ra in the supernatant / amount of IL-1α in the supernatant / amount of IL-1β in the supernatant / amount of IL-3 in the supernatant / amount of IL-6 in the supernatant / amount of IL-8 in the supernatant / amount of MCP-4 in the supernatant / amount of NAP-2 in the supernatant / amount of PARC in the supernatant / amount of RANTES in the supernatant / amount of SDF-1 in the supernatant / amount of TARC in the supernatant / amount of TGFβ3 in the supernatant / amount of soluble IL-6 Receptor in the supernatant / amount of soluble TNF-Receptor II in the supernatant: FIGS. 3b and 3c
# Procedure: All reagents were from Raybiotech (Hilden, Germany). 2 ml supernatant from cultures with 5×10^6 cells/ml was mixed with blocking buffer (BB) and pipetted to blocked human cytokine micro arrays 6.1 and 7.1. After overnight incubation, the membranes were washed three times with wash buffer I and two times with wash buffer II. Anti-cytokine antibodies were added in 2 ml BB. After incubation and wash as described above, 2 ml streptavidin-HRP was added. Again after incubation and wash as described above, detection solution was added and exposure for 18 h to X-ray films were performed.
# [5] = peripheral blood mononuclear cells, in vitro
sequence,measurement,setting,value
"SESVNISTNVNRFHTFPYCEIAEVSCRSKVRIELDLQSPESS (MISC_FEATURE: synthetic) [control peptide, reference compound]",TCR-expression,TCR [1]; after 24 h,no effect
"SQVSPFKIPIEELEDRVFVNCNTSIYRASSLSN CRHTSSVEE (SQVSPFKIPIEELEDRVFVNCNTSIYRASSLSNCRHTSSVEE) [CD3 kappa, 42 amino acid long synthesized peptide, splice variant of CD3 delta without the signal peptide]",CD4 expression,CD4,up-regulation
same,decreased TCR expression of patients after treatment,"TCR [2]; PBMCs / T lymphocytes from patients with decreased TCR expression, compared with healthy individuals",restored to normal levels; also recorded: increased in a statistically significant manner
same,TCR upregulation,"TCR [2]; PBMCs from patients recovering from fludarabine treatment, after 48 h treatment, FIG. 5",25 fold
same,expression of CD2,PBMCs [3]; FIG. 3a,up-regulation
same,expression of CD58,PBMCs [3]; FIG. 3a,down regulated
same,expression of CD127,PBMCs [3]; FIG. 3a,up-regulation
same,expression of CD2,"PBMCs [3]; FIG. 3a, listed as CD3-kappa",increase
same,expression of CD127,"PBMCs [3]; FIG. 3a, listed as CD3-kappa",increase
same,expression of CD38,PBMCs [3]; FIG. 4a,not changed
same,expression of CD44,PBMCs [3]; FIG. 4a,not changed
same,expression of CD45RA,PBMCs [3]; FIG. 4a,not changed
same,expression of CD45RO,PBMCs [3]; FIG. 4a,not changed
same,expression of CD62L,PBMCs [3]; FIG. 4a,not changed
same,expression of CD95,PBMCs [3]; FIG. 4a,not changed
same,expression of HLA-ABC,PBMCs [3]; FIG. 4a,not changed
same,"expression of HLA-DR, DP, DQ",PBMCs [3]; FIG. 4a,not changed
same,expression of LAIR,PBMCs [3]; FIG. 4a,not changed
same,non-T-cell markers,PBMCs [3]; FIG. 4a,not affected
same,expression of CCR3,PBMCs [3]; FIG. 4b,up-regulation
same,expression of CCR9,PBMCs [3]; FIG. 4b,up-regulation
same,expression of CXCR1,PBMCs [3]; FIG. 4b,up-regulation
same,expression of CXCR3,PBMCs [3]; FIG. 4b,slight upregulation
same,expression of CXCR4,PBMCs [3]; FIG. 4b,slight upregulation
same,expression of CCR3,"PBMCs [3]; FIG. 4b, listed as CD3-kappa",increase
same,expression of CCR9,"PBMCs [3]; FIG. 4b, listed as CD3-kappa",increase
same,expression of CXCR1,"PBMCs [3]; FIG. 4b, listed as CD3-kappa",increase
same,expression of CD25,PBMCs [3],up-regulation
same,expression of CD116,PBMCs [3],up-regulation
same,expression of CD25,PBMCs [3]; listed as CD3-kappa,increase
same,expression of CD116,PBMCs [3]; listed as CD3-kappa,increase
same,concentration giving detectable TCR-upregulation,"TCR [1]; CD4+ cells from healthy donors, 24 h",≥ 0.1 mg/mL
same,TCR-expression,TCR [1]; after 24 h,concentration dependent increase
same,TCR expression over time,"TCR [1]; PBMCs / CD4 cells, over the next 6 days, FIG. 2B",remarkable and sustained increase; also recorded: stabilized
same,upregulation of the TCR (maximal response),"TCR [1]; PBMCs from healthy donors, up to 1 mg/ml, after 24 h",six
same,influence of stimulation with PMA and ionomycin on the TCR increase,TCR [1]; cells stimulated with PMA and ionomycin,did not affect this finding
same,TCR expression at day 6,TCR [1]; day 6,decline
same,amount of EGF in the supernatant,PBMCs [4],increased release
same,amount of Eotaxin-2 in the supernatant,PBMCs [4],increased release
same,amount of GRO in the supernatant,PBMCs [4],decreased release
same,amount of I-309 in the supernatant,PBMCs [4],increased release
same,amount of IFNγ in the supernatant,PBMCs [4],increased release
same,amount of IL-1ra in the supernatant,PBMCs [4],decreased release
same,amount of IL-1α in the supernatant,PBMCs [4],increased release
same,amount of IL-1β in the supernatant,PBMCs [4],increased release
same,amount of IL-3 in the supernatant,PBMCs [4],increased release
same,amount of IL-6 in the supernatant,PBMCs [4],increased release
same,amount of IL-8 in the supernatant,PBMCs [4],decreased release
same,amount of MCP-4 in the supernatant,PBMCs [4],decreased release
same,amount of NAP-2 in the supernatant,PBMCs [4],increased release
same,amount of PARC in the supernatant,PBMCs [4],increased release
same,amount of RANTES in the supernatant,PBMCs [4],decreased release
same,amount of SDF-1 in the supernatant,PBMCs [4],decreased release
same,amount of TARC in the supernatant,PBMCs [4],decreased release
same,amount of TGFβ3 in the supernatant,PBMCs [4],increased release
same,amount of soluble IL-6 Receptor in the supernatant,PBMCs [4],decreased release
same,amount of soluble TNF-Receptor II in the supernatant,PBMCs [4],decreased release
same,amount of EGF in the supernatant,PBMCs [4]; listed as CD3-kappa,increased
same,amount of Eotaxin-2 in the supernatant,PBMCs [4]; listed as CD3-kappa,increased
same,amount of GRO in the supernatant,PBMCs [4]; listed as CD3-kappa,decreased
same,amount of I-309 in the supernatant,PBMCs [4]; listed as CD3-kappa,increased
same,amount of IFNγ in the supernatant,PBMCs [4]; listed as CD3-kappa,increased
same,amount of IL-1ra in the supernatant,PBMCs [4]; listed as CD3-kappa,decreased
same,amount of IL-1α in the supernatant,PBMCs [4]; listed as CD3-kappa,increased
same,amount of IL-1β in the supernatant,PBMCs [4]; listed as CD3-kappa,increased
same,amount of IL-3 in the supernatant,PBMCs [4]; listed as CD3-kappa,increased
same,amount of IL-6 in the supernatant,PBMCs [4]; listed as CD3-kappa,increased
same,amount of IL-8 in the supernatant,PBMCs [4]; listed as CD3-kappa,decreased
same,amount of MCP-4 in the supernatant,PBMCs [4]; listed as CD3-kappa,decreased
same,amount of NAP-2 in the supernatant,PBMCs [4]; listed as CD3-kappa,increased
same,amount of PARC in the supernatant,PBMCs [4]; listed as CD3-kappa,increased
same,amount of RANTES in the supernatant,PBMCs [4]; listed as CD3-kappa,decreased
same,amount of SDF-1 in the supernatant,PBMCs [4]; listed as CD3-kappa,decreased
same,amount of TARC in the supernatant,PBMCs [4]; listed as CD3-kappa,decreased
same,amount of TGFβ3 in the supernatant,PBMCs [4]; listed as CD3-kappa,increased
same,amount of soluble IL-6 Receptor in the supernatant,PBMCs [4]; listed as CD3-kappa,decreased
same,amount of soluble TNF-Receptor II in the supernatant,PBMCs [4]; listed as CD3-kappa,decreased
same,duration of the changes in secretion,PBMCs [4]; [5],up to eight
same,time after addition at which the changes in secretion occur,PBMCs [4]; [5],about 24 h

# From patent US9085641B2, “Peptides regulating the surface expression of the T cell receptor” (Max-Delbruck-Centrum Fur Molekulare Medizin, priority 2006, dated 2015)
